The target of data set [1] is T1, UT receptor (Homo sapiens, UniProt Q9UKP6).
T1 construct: SNAP-tag; expressed in transfected cells; host or cells: 293A8 (HEK293A stably transfected with the UT receptor); inferred, the calcium-assay paragraph names no cells
T1 sequence (Q9UKP6 1-389): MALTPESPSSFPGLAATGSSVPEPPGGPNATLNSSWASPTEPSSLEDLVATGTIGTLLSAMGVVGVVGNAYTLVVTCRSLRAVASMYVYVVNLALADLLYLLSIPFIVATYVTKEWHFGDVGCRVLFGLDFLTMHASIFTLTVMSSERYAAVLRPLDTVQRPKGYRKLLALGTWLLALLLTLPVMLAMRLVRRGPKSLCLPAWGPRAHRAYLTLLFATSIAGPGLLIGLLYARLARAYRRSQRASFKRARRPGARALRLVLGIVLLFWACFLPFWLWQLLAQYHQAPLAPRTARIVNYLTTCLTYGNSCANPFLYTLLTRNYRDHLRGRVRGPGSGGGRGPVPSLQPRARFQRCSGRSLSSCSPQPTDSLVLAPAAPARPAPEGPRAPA
Details: method as in ChEMBL database and others. Conditions: antagonist; Table S1 benchmarking ligands; ref ChEMBL database and others; cited from earlier work.

Data set [2] concerns the target T1, UT receptor. The experiment in a line: luciferase β-arrestin recruitment-based assay. In kind it is cell-based. The protocol:
(§1) HTLA cells (a HEK293 cell line stably expressing a tTA-dependent luciferase reporter and a β-arrestin2-TEV fusion gene) were a gift from the laboratory of R. Axel (he has given us permission to distribute them) and are maintained in DMEM supplemented with 10% FBS, 100 U/mL penicillin and 100 μg/mL streptomycin, 2 μg/mL puromycin and 100 μg/mL hygromycin B. HepG2 cells (C5 passage, human hepatoma cell line) were purchased from the National Platform of Experimental Cell Resources for Sci-Tech, Chinese Academy of Medical Sciences (Beijing, China), and 293A8 cells were the cell line HEK293A stably transfected with the UT receptor in our laboratory. HepG2 and 293A8 cells were grown in high glucose (25 mmol/L) Dulbecco’s modified Eagle’s medium (DMEM, Gibco, CA, USA) supplemented with 10% fetal bovine serum (FBS, Gibco, CA, USA), 100 U/mL penicillin and 100 µg/mL streptomycin solution (Solarbio, Beijing, China). Cells were cultured in a standard humidified incubator at 37 °C under a 5% CO2 atmosphere. The media were changed every 2 days. Subcultures were performed at a ratio of 1:3 when cells were approximately 75–85% confluent.
The β-arrestin recruitment-based experiments were performed according to previous reports with slight modifications. In brief, the UT receptor plasmid was transfected into HTLA cells with the transfection reagent PEI when the cell confluence reached approximately 80%. Transfected cells were seeded in 96-well plates at a density of 1.5 × 10^5 cells/well. After 24 h, the cells were treated with compounds diluted to the specified concentration using 10% FBS DMEM. Following the next 24 h incubation with compounds, the medium was removed and Bright-GloTM (Promega, Madison, WI, USA) reagent was added immediately. Then, the activity of firefly luciferase luminescence (RLUF) was measured using a SpectraMax M5 microplate reader (Molecular devices, LLC., San Jose, CA, USA).

Data set [3] has as its target T1, UT receptor. The experiment in a line: intracellular calcium mobilization (Fluo-8 calcium assay). In kind it is cell-based. The settings on record: for agonist behaviour in calcium assay: in words. The protocol: as §1
Measurement of intracellular calcium mobilization was performed using Fluo-8 Calcium Assay Kit (Applygen, Beijing, China) following the manufacturer’s instructions.

The subject of data set [4] is HepG2 cells. The experiment in a line: glucose consumption. In kind it is cell-based, human. The protocol: as §1
(§2) Glucose consumption detection was performed as described previously. In brief, HepG2 cells in 96-well plates at a density of 8000 cells/well were treated with compounds at 37 °C, and 5% CO2. After the indicated duration, the media from cultured cells were taken for glucose and lactic acid detection. The glucose levels were detected by a blood-glucose kit from Biosino Biotechnology (Beijing, China). The amount of glucose consumption was calculated by subtracting the initial glucose level from the remaining glucose in the wells. The lactate content was measured using the lactic acid assay kit (Nanjing Jiancheng Bioengineering Institute, Nanjing, China) according to the manufacturer’s instructions.

For data set [5], the system named is HepG2 cells. The experiment in a line: lactic acid release. The data set is classed as cell-based, human. The protocol: as §1, §2
The test system of data set [6] is HepG2 cells. Nature of the data set: cell viability (CCK-8). In kind it is cell-based, human. Conditions: 24 h. The protocol: as §1
Cell viability was detected by Cell Counting Kit-8 (CCK-8) per the instructions of the technical manual (Dojindo, Kumamoto, Japan). In brief, the cells were seeded in a 96-well plate and incubated overnight in the cell culture incubator. After the cells were treated with compounds for a certain period, the CCK-8 test solution was added at 1/10 of the total volume. Then, the plates were incubated in the incubator for 2 h, and the absorbance at 450 nm was measured using a SpectraMax M5 microplate reader (Molecular Devices, LLC, San Jose, CA, USA).

The conditions of data set [7]: chronic administration, cited from earlier work.
On the set-up of data set [8]: method as in PMID 19696412. The settings on record: cited from earlier work.
Where [9] appears, read: HTLA cells transfected with UT receptor plasmid.
Setting [10] is: HTLA cells transfected with UT receptor plasmid, 24 h incubation, read-out: β-arrestin recruitment-based assay EC50.
The mark [11] stands for this setting: intracellular calcium mobilization.
Where [12] appears, read: intracellular calcium mobilization, fluorescence-based, read-out: Calcium assay EC50.

Here are results for 15 compounds from article PMC9788431, “Combination of Docking-Based and Pharmacophore-Based Virtual Screening Identifies Novel Agonists That Target the Urotensin Receptor” (Molecules, 2022).

“Also recorded” adds a separate entry of the source.

`O=C(NC1CCN(Cc2ccc(OC3CCNCC3)c(Br)c2)CC1)c1cc2cc(Br)ccc2s1` [CHEMBL3915670]: the IC50 at UT receptor [1] was 86 nM.

For `O=C(NC1CCN(Cc2ccc(OC3CCNCC3)c(Br)c2)CC1)c1cnccn1` [CHEMBL3920751], at UT receptor [1], the IC50 is 610 nM.

Take `O=C(NC1CCN(Cc2ccc(OC3CCNCC3)c(Br)c2)CC1)c1cc2cc(F)ccc2s1` [CHEMBL3924660]: the IC50 on UT receptor [1] is 53 nM.

Turning to `O=C(NC1CCN(Cc2ccc(OC3CCNCC3)c(Br)c2)CC1)c1ccco1` [CHEMBL3942137], the IC50 on UT receptor [1] was 770 nM.

`O=C(NC1CCN(Cc2ccc(OC3CCNCC3)c(Br)c2)CC1)c1cc2cc(-c3ccccc3)ccc2s1` [CHEMBL3949719]: the IC50 on UT receptor [1] is 310 nM.

On to `COc1ccc2sc(C(=O)NC3CCN(Cc4ccc(OC5CCNCC5)c(Br)c4)CC3)cc2c1` [CHEMBL3957806], for which the IC50 at UT receptor [1] was 100 nM.

As for `Cc1ccc2sc(C(=O)NC3CCN(Cc4ccc(OC5CCNCC5)c(Br)c4)CC3)cc2c1` [CHEMBL3968841], the IC50 at UT receptor [1] was 74 nM.

Take `N#Cc1ccc2sc(C(=O)NC3CCN(Cc4ccc(OC5CCNCC5)c(Br)c4)CC3)cc2c1` [CHEMBL3977330]: the IC50 on UT receptor [1] was 25 nM.

Consider `O=C(NC1CCN(Cc2ccc(OC3CCNCC3)c(Br)c2)CC1)c1cccs1` [CHEMBL3979822], for which, on UT receptor [1], the IC50 is 130 nM.

In the case of `COc1cccc(-c2ccc3cc(C(=O)NC4CCN(Cc5ccc(OC6CCNCC6)c(Br)c5)CC4)sc3c2)c1` [CHEMBL3987058], the IC50 at UT receptor [1] was 87 nM.

In the case of `C=CC(C)(C)c1c(O)cc(O)c2c(=O)c(O)c(-c3cc(O)c4c(c3)C=CC(C)(C)O4)oc12` [Compound 1], on UT receptor [2] (setting [9]), the “β-arrestin recruitment-based assay Emax” value was 4.85. The EC50 amounted to 89.7 nM on UT receptor [2] (setting [10]) and 7390 nM on UT receptor [3] (setting [12]). For the same compound, the “agonist behaviour in calcium assay” value at UT receptor [3] is “full potent agonist”. Also, the “Calcium assay Emax” value at UT receptor [3] (setting [11]) came to 5.62. In addition, the glucose consumption entry in the data set on HepG2 cells [4] (48 h total glucose consumption) is “significantly accelerate 48 h total glucose consumption; also recorded: promote glucose utilization”. Besides, the lactic acid release result in the data set on HepG2 cells [5] is “reduced lactic acid production”. The cell viability entry with HepG2 cells [6] was “did not affect; also recorded: without obvious cytotoxic effects”.

Regarding `O=C(c1ccc([N+](=O)[O-])o1)N1CCN(c2ccc([N+](=O)[O-])cc2)CC1` [Compound 2], the EC50 on UT receptor [2] came to 37 nM; at UT receptor [3], 10200 nM. The “β-arrestin recruitment-based assay Emax” value on UT receptor [2] (setting [9]) came out at 2.40. Moreover, the “Calcium assay Emax” value on UT receptor [3] (setting [11]) is on record as 4.08. For the same compound, in the data set with HepG2 cells [4] (48 h total glucose consumption), the glucose consumption entry is reported as “no significant differences”. The lactic acid release result in the data set with HepG2 cells [5] is on record as “no significant differences”. The cell viability result in the data set on HepG2 cells [6] is “no significant differences”.

Turning to `O=C(NCCc1cccs1)C1(c2ccccc2)CCCC1` [Compound 3], the “β-arrestin recruitment-based assay Emax” value at UT receptor [2] (setting [9]) is listed as 3.26. Moreover, the EC50 came to 44.8 nM at UT receptor [2] (setting [10]) and 10600 nM at UT receptor [3] (setting [12]). Also, the “agonist behaviour in calcium assay” value on UT receptor [3] was “weak activity”. The “Calcium assay Emax” value on UT receptor [3] (setting [11]) came to 2.37. Moreover, the glucose consumption entry in the data set with HepG2 cells [4] (at higher concentrations (10^−6 M, 10^−5 M)) is listed as “significantly increased glucose consumption”. Besides, the lactic acid release entry in the data set with HepG2 cells [5] is “reduced lactic acid production”. Further, the cell viability result with HepG2 cells [6] is “significantly reduced cell viability”.

Turning to `CC(C)[C@H](NC(=O)[C@@H]1CSSC[C@H](NC(=O)[C@H](CC(=O)O)NC(=O)[C@@H]2CCCN2C(=O)[C@@H](NC(=O)[C@@H](N)CCC(=O)O)[C@@H](C)O)C(=O)N[C@@H](Cc2ccccc2)C(=O)N[C@@H](Cc2c[nH]c3ccccc23)C(=O)N[C@@H](CCCCN)C(=O)N[C@@H](Cc2ccc(O)cc2)C(=O)N1)C(=O)O` [U-II, urotensin-II], the “β-arrestin recruitment-based assay Emax” value on UT receptor [2] (setting [9]) was 8.32. Further, the “Calcium assay Emax” value on UT receptor [3] (setting [11]) came out at 5.27. Moreover, the whole-body glucose tolerance result in data set [7] (high-fat-diet-fed mice) is “improves whole-body glucose tolerance”. In addition, the glucose tolerance entry in data set [7] (obese mice) is on record as “improved glucose tolerance”. Also, the “glucose consumption in vitro” value in data set [8] is “increases glucose consumption”.

Take `Cc1cc(NC(=O)NCCN2CCC(O)(Cc3ccccc3)CC2)c2ccccc2n1` [palosuran]: the “effect of palosuran preincubation on compound-induced intracellular calcium mobilization” value at UT receptor [3] (palosuran 10^−7 M, with Compounds 1, 2, 3) is on record as “specifically reduced the increase in intracellular calcium mobilization”.

The IC50 is the concentration needed to halve the response being measured. For orientation: EC50 means the concentration giving half of the maximal effect.
